Target: T1, BmpD (rBmpD; LF-rBmpD) (Borreliella burgdorferi, UniProt P0CL55)
T1 construct: signal peptide (residues 1 to 17) removed; N-terminal hexahistidine tag (pET-30a(+)) kept; E. coli BL21(DE3)pLys; 39 kDa; monomer; printed end 323 may be in mature count
T1 sequence (P0CL55 18-341): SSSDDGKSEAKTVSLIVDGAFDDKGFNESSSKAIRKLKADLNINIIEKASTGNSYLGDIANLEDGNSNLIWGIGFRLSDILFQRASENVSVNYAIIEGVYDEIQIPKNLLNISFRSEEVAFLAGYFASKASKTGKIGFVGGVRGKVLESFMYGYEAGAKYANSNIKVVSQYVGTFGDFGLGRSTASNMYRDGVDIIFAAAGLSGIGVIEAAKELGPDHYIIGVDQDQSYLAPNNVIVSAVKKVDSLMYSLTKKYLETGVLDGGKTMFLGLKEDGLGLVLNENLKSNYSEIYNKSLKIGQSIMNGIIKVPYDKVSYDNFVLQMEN
Test: X-ray crystal structure ([…] A) with LC-MS of co-purified ligand; label-free MST on refolded LF-rBmpD
Assay type: binding
Conditions: endogenously bound from E. coli expression, crystals at pH 8.0; MST: 500 nM refolded ligand-free protein, single experiment, no Kd displayed

Nc1ncnc2c1ncn2[C@@H]1O[C@H](CO)[C@@H](O)[C@H]1O [adenosine]
X-ray crystal structure (1.43 A) with LC-MS of co-purified ligand; label-free MS: the ligand was a purine nucleoside, which was confirmed to be an adenosine
